This passage reports IC50 results from patent US11739098B2 (BRISTOL-MYERS SQUIBB COMPANY, priority 2017, dated 2023).

Holding throughout (format): cell-based
For one experiment, the target named is T1, human TLR7 (Homo sapiens, UniProt Q9NYK1).
T1 construct: host or cells: HEK-Blue cells (HEK293-derived reporter line)
T1 sequence (Q9NYK1 27-1049): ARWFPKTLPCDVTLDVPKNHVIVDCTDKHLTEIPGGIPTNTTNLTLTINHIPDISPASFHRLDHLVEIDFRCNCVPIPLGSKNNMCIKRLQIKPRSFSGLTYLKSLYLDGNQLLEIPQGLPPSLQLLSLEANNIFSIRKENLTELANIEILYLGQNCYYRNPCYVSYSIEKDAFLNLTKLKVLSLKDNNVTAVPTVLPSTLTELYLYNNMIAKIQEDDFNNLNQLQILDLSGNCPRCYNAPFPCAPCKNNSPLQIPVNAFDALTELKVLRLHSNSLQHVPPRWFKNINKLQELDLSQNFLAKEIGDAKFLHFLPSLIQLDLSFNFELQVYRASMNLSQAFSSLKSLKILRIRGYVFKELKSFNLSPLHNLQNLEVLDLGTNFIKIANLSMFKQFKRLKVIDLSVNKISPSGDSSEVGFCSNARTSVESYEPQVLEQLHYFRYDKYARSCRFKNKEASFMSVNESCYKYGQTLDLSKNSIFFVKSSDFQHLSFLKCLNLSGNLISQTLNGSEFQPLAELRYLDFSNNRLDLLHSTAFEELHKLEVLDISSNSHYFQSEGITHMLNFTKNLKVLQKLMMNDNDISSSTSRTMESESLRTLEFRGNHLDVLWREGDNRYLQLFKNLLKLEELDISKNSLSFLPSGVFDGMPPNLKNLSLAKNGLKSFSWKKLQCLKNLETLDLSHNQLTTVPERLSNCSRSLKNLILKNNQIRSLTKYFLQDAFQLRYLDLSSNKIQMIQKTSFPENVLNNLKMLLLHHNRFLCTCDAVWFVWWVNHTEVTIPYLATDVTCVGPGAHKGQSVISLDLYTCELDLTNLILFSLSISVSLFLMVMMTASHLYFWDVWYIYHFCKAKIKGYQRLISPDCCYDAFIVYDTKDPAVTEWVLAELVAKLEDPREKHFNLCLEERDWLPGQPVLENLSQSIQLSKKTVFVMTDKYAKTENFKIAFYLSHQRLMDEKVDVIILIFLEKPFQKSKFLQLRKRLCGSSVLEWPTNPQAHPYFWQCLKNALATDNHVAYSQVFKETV
Nature of the experiment: TLR7 inhibition reporter assay (HEK-Blue cells, SEAP reporter, gardiquimod stimulation). The conditions noted are these: HEK-Blue cells overexpressing human TLR7, SEAP reporter, gardiquimod 7.5 μM. Put shortly: (§1)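 Cells seeded per well (15000 TLR7, 20,000 TLR8, 25,000 TLR9); compound added over 0.05 nM–50 μM for 30 min at room temperature; agonist added (TLR7 gardiquimod 7.5 μM, TLR8 R848 15.9 μM, TLR9 ODN2006 5 nM); 22 h at 37 °C; SEAP measured; percent inhibition calculated.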

For a further experiment, the target named is T2, human TLR8 (Homo sapiens, UniProt Q9NR97).
T2 construct: host or cells: HEK-Blue cells (HEK293-derived reporter line)
T2 sequence (Q9NR97 27-1041): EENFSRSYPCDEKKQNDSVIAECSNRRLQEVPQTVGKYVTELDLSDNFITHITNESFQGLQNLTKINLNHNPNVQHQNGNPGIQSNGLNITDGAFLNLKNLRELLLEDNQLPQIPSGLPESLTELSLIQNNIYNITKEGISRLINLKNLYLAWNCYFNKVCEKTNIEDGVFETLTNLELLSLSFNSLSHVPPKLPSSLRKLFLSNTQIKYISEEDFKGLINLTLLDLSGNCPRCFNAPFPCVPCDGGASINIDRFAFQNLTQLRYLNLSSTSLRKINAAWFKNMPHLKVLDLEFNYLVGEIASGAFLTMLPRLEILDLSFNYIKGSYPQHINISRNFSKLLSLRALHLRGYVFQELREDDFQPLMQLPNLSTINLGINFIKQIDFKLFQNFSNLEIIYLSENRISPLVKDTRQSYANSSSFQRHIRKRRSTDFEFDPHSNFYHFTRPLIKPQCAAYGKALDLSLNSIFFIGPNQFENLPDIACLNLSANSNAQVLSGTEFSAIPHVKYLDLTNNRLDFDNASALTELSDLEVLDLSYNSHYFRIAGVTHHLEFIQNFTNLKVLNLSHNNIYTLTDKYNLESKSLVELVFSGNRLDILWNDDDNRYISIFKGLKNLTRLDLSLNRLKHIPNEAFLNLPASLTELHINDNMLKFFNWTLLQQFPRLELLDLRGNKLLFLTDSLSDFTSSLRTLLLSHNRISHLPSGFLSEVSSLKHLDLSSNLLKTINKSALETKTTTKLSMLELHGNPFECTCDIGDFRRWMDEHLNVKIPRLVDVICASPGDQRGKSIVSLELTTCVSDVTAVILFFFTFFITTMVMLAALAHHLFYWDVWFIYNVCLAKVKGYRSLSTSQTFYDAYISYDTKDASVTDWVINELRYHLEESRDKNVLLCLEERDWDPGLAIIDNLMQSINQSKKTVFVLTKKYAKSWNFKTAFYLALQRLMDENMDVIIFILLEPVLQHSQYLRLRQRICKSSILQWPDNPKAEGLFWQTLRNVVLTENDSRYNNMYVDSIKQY
Briefly: TLR8 inhibition reporter assay (HEK-Blue cells, SEAP reporter, R848 stimulation). The settings on record: HEK-Blue cells overexpressing human TLR8, SEAP reporter, R848 15.9 μM. Put shortly:
as §1

The next experiment addresses T3, human TLR9 (Homo sapiens, UniProt Q9NR96).
T3 construct: host or cells: HEK-Blue cells (HEK293-derived reporter line)
T3 sequence (Q9NR96 26-1032): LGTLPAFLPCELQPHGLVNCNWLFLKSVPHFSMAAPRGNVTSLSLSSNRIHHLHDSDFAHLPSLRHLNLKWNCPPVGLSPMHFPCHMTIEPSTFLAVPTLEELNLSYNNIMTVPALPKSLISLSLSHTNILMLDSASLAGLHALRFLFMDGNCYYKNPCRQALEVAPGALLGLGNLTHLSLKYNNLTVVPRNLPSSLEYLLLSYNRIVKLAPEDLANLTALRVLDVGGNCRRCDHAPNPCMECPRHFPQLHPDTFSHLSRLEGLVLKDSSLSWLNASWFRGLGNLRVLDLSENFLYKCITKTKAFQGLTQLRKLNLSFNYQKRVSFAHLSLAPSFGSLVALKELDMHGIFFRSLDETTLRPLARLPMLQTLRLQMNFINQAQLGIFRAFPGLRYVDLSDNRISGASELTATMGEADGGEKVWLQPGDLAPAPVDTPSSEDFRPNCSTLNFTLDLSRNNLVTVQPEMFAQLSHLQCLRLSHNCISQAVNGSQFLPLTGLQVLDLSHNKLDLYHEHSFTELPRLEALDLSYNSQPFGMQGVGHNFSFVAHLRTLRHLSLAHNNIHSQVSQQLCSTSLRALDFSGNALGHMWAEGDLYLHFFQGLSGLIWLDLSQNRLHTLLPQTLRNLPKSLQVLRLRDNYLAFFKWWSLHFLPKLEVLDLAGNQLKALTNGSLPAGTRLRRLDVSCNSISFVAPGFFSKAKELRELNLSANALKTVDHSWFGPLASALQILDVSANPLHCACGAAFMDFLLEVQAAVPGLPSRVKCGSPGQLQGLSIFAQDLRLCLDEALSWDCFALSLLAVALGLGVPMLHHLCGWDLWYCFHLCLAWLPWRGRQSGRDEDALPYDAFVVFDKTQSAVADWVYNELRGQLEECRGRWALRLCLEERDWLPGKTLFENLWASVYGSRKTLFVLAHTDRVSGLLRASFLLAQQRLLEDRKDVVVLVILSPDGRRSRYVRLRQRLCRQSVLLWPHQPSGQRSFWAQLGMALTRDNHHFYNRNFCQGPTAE
Nature of the experiment: TLR9 inhibition reporter assay (HEK-Blue cells, SEAP reporter, ODN2006 stimulation). The conditions noted are these: HEK-Blue cells overexpressing human TLR9, SEAP reporter, ODN2006 5 nM. Put shortly: as §1

Turning to `CC(C)c1c(-c2ccnc3[nH]ncc23)[nH]c2ccc(C3CCN(C(=O)CN4CCC(CO)CC4)CC3)cc12` [Example 576, 2-(4-(hydroxymethyl)piperidin-1-yl)-1-(4-(3-isopropyl-2-(1H-pyrazolo[3,4-b]pyridin-4-yl)-1H-indol-5-yl)piperidin-1-yl)ethan-1-one], the IC50 at human TLR7 is less than 100 nM; against human TLR8 it was less than 100 nM; on human TLR9, 1000 to 50000 nM.

As to `CC(C)c1c(-c2ccnc3[nH]ncc23)[nH]c2ccc(C3CCN(C(=O)CN4CCCN(C)CC4)CC3)cc12` [Example 577, 1-(4-(3-isopropyl-2-(1H-pyrazolo[3,4-b]pyridin-4-yl)-1H-indol-5-yl)piperidin-1-yl)-2-(4-methyl-1,4-diazepan-1-yl)ethan-1-one], the half-maximal inhibitory concentration (IC50) was less than 100 nM on human TLR7, less than 100 nM against human TLR8 and 100 to 1000 nM against human TLR9.

On to `CC(C)NCC(=O)N1CCC(c2ccc3[nH]c(-c4ccnc5[nH]ncc45)c(C(C)C)c3c2)CC1` [Example 578, 1-(4-(3-isopropyl-2-(1H-pyrazolo[3,4-b]pyridin-4-yl)-1H-indol-5-yl)piperidin-1-yl)-2-(isopropylamino)ethan-1-one], for which the results for the IC50 at human TLR7, on human TLR8 and against human TLR9 were less than 100 nM, less than 100 nM and 1000 to 50000 nM, respectively.

For the compound `CC(C)c1c(-c2ccnc3[nH]ncc23)[nH]c2ccc(C3CCN(C(=O)CN4CC[C@@H](O)C4)CC3)cc12` [Example 579, (R)-2-(3-hydroxypyrrolidin-1-yl)-1-(4-(3-isopropyl-2-(1H-pyrazolo[3,4-b]pyridin-4-yl)-1H-indol-5-yl)piperidin-1-yl)ethan-1-one], the half-maximal inhibitory concentration (IC50) was less than 100 nM against human TLR7, less than 100 nM against human TLR8 and 100 to 1000 nM on human TLR9.

For the compound `CC(C)c1c(-c2ccnc3[nH]ncc23)[nH]c2ccc(C3CCN(C(=O)CNCC(C)(C)N4CCOCC4)CC3)cc12` [Example 580, 1-(4-(3-isopropyl-2-(1H-pyrazolo[3,4-b]pyridin-4-yl)-1H-indol-5-yl)piperidin-1-yl)-2-((2-methyl-2-morpholinopropyl)amino)ethan-1-one], the figures for the IC50 on human TLR7, at human TLR8 and at human TLR9 were less than 100 nM, less than 100 nM and 1000 to 50000 nM, respectively.

Take `CC(=O)N[C@H]1CCN(CC(=O)N2CCC(c3ccc4[nH]c(-c5ccnc6[nH]ncc56)c(C(C)C)c4c3)CC2)C1` [Example 581, (S)—N-(1-(2-(4-(3-isopropyl-2-(1H-pyrazolo[3,4-b]pyridin-4-yl)-1H-indol-5-yl)piperidin-1-yl)-2-oxoethyl)pyrrolidin-3-yl)acetamide]: the IC50 against human TLR7 was less than 100 nM; on human TLR8, less than 100 nM; against human TLR9, 1000 to 50000 nM.

Regarding `CC(C)c1c(-c2ccnc3[nH]ncc23)[nH]c2ccc(C3CCN(C(=O)CN4CC[C@@H](N(C)C)C4)CC3)cc12` [Example 582, (R)-2-(3-(dimethylamino)pyrrolidin-1-yl)-1-(4-(3-isopropyl-2-(1H-pyrazolo[3,4-b]pyridin-4-yl)-1H-indol-5-yl)piperidin-1-yl)ethan-1-one], the IC50 at human TLR7 is less than 100 nM; on human TLR8 it was less than 100 nM; at human TLR9 it was 100 to 1000 nM.

For the compound `CCC(C)NCC(=O)N1CCC(c2ccc3[nH]c(-c4ccnc5[nH]ncc45)c(C(C)C)c3c2)CC1` (stereo not drawn) [Example 583, 2-(sec-butylamino)-1-(4-(3-isopropyl-2-(1H-pyrazolo[3,4-b]pyridin-4-yl)-1H-indol-5-yl)piperidin-1-yl)ethan-1-one], the IC50 on human TLR7 is less than 100 nM; against human TLR8 it was less than 100 nM; on human TLR9, 1000 to 50000 nM.

Regarding `CC(C)c1c(-c2ccnc3[nH]ncc23)[nH]c2ccc(C3CCN(C(=O)CN4CCC[C@H]4C(N)=O)CC3)cc12` [Example 584, (S)-1-(2-(4-(3-isopropyl-2-(1H-pyrazolo[3,4-b]pyridin-4-yl)-1H-indol-5-yl)piperidin-1-yl)-2-oxoethyl)pyrrolidine-2-carboxamide], the IC50 at human TLR7 was less than 100 nM; against human TLR8, less than 100 nM; against human TLR9, 1000 to 50000 nM.

`CC(C)c1c(-c2ccnc3[nH]ncc23)[nH]c2ccc(C3CCN(C(=O)CN(C)C(C)C)CC3)cc12` [Example 585, 2-(isopropyl(methyl)amino)-1-(4-(3-isopropyl-2-(1H-pyrazolo[3,4-b]pyridin-4-yl)-1H-indol-5-yl)piperidin-1-yl)ethan-1-one]: the half-inhibitory concentration (IC50) against human TLR7 was less than 100 nM; at human TLR8 it was less than 100 nM; on human TLR9 it was 1000 to 50000 nM.

Take `CC(=O)N1CCCN(CC(=O)N2CCC(c3ccc4[nH]c(-c5ccnc6[nH]ncc56)c(C(C)C)c4c3)CC2)CC1` [Example 586, 2-(4-acetyl-1,4-diazepan-1-yl)-1-(4-(3-isopropyl-2-(1H-pyrazolo[3,4-b]pyridin-4-yl)-1H-indol-5-yl)piperidin-1-yl)ethan-1-one]: the values for the IC50 at human TLR7, against human TLR8 and on human TLR9 were less than 100 nM, less than 100 nM and 1000 to 50000 nM, respectively.
